Experimental findings from ChEMBL document CHEMBL1201862, “PubChem BioAssay data set” (2004) are described below.

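Following 48 hours of exposure in 96-well plates, responses at five concentrations were used to interpolate endpoints linearly. At the GI50, growth is halved.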 The source made the active and inactive calls. Rule as the data show it: active = GI50 up to about 1.1 µM and inactive = higher.

What all share (assay): NCI tumour cell line growth inhibition, 48 h
For test [1], the system named is M14.
Test [2] relates to LOX IMVI.
The test system of test [3] is MDA-N.
For test [4], the system named is 786-0.
Test [5] concerns A549.
Test [6] deals with U-251.
Test [7] relates to HCT-15.
Test [8] relates to NCI-H522.
Test [9] concerns MOLT-4.
For test [10], the system named is SW-620.
For test [11], the system named is MDA-MB-435.
Test [12] relates to SR.
In test [13] the test system is SN12C.
For test [14], the system named is K562.
The subject of test [15] is SK-MEL-28.
In test [16] the test system is ACHN.
Test [17] concerns Malme-3M.
Test [18] deals with CCRF-CEM.
The subject of test [19] is SNB-75.

For `CC(C)(C)OC(=O)NCCCCC1NC(=O)[C@@H]2Cc3c([nH]c4ccccc34)C(C3CCCCC3)N2C1=O` (stereo partly drawn), the GI50 was 22.9 µM (inactive) in test [1]; 31.2 µM (inactive) in test [2]; 25.4 µM (inactive) in test [3]; 27 µM (inactive) in [4]; 30.5 µM (inactive) in test [5]; 31.5 µM (inactive) in test [6]. For the same compound, the GI50 in test [7] is 36 µM; in test [8], 45.3 µM (inactive); in test [9], 5.28 µM (inactive); in test [10], 61.8 µM (inactive); in test [11], 23.6 µM (inactive); in [12] it was 15.2 µM (inactive). Besides, the GI50 in [13] was 39.1 µM (inactive); in test [14], 30.8 µM (inactive); in [15], 85.1 µM (inactive); in test [16] it was 45.6 µM (inactive); in test [17] it was > 100 µM (inactive).
In the case of `COc1cc([C@@H]2c3cc4c(cc3[C@H](OC3OC5COC(C(C)C)OC5C(O)C3O)C3COC(=O)[C@@H]32)OCO4)cc(OC)c1O` (stereo partly drawn), the GI50 in [1] was 11.4 µM (inactive); in [2] it was 12.2 µM (inactive); in [3], 2.4 µM (inactive); in [4], 10 µM (inactive); in [18] it was 6.03 µM (inactive); in test [5], 8.67 µM (inactive). In addition, the GI50 in test [6] was 2.53 µM (inactive); in test [7], 10.3 µM; in [8] it was 14 µM (inactive); in [9], 3.17 µM (inactive); in test [10], 6.53 µM (inactive); in [11], 4.58 µM (inactive). The GI50 was 1.47 µM (inactive) in test [12], 8.61 µM (inactive) in test [14], 3.51 µM (inactive) in [16] and 16.6 µM (inactive) in test [17].
Regarding `CC1CCN(c2nnc(Cl)cc2C(=O)c2ccccc2)CC1`, the GI50 was 27 µM (inactive) in test [1]; 27.5 µM (inactive) in test [19]; 29.4 µM (inactive) in test [2]; 21.7 µM (inactive) in [3]; 41.7 µM (inactive) in [4]; 13.5 µM (inactive) in test [18]. The GI50 in [5] is 32.1 µM (inactive); in test [6], 31.1 µM (inactive); in test [7], 35.6 µM; in test [8], 26.7 µM (inactive); in test [9], 20.7 µM (inactive); in [10], 22.1 µM (inactive). Moreover, the GI50 in [11] was 21.5 µM (inactive); in test [12], 17.5 µM (inactive); in [13], 50.7 µM (inactive); in test [14] it was 53 µM (inactive); in test [15], 39.3 µM (inactive); in test [16] it was 49.9 µM (inactive).
Regarding `O=C1CSC2=NC3=C(CSC/C3=C\c3ccc(Cl)cc3)C(c3ccc(Cl)cc3)N12` (stereo not drawn), the GI50 is 19.1 µM (inactive) in test [1]; 12.3 µM (inactive) in test [2]; > 10 µM (inactive) in [3]; > 10 µM (inactive) in [4]; 14.6 µM (inactive) in [18]; 6.87 µM (inactive) in [5]. The GI50 was > 10 µM (inactive) in [6]; 15.8 µM in test [7]; 12.5 µM (inactive) in test [8]; 9.08 µM (inactive) in test [9]; 23.8 µM (inactive) in test [10]; 25.1 µM (inactive) in [11]. The GI50 in [12] was 14.9 µM (inactive); in [13], 12.4 µM (inactive); in [14], 21.1 µM (inactive); in [15], 27 µM (inactive); in test [16], 16.9 µM (inactive); in test [17] it was 40.6 µM (inactive).
Regarding `N=C1OC(CN2CCN(c3ccccc3)CC2)CN1C(=O)Nc1ccccc1` (stereo not drawn), the GI50 in test [1] was > 100 µM (inactive); in test [2] it was > 100 µM (inactive); in test [3] it was > 100 µM (inactive); in [4] it was > 100 µM (inactive); in test [18], 43.3 µM (inactive); in test [5], > 100 µM (inactive). Moreover, the GI50 in test [6] is > 100 µM (inactive); in test [7], above 100 µM; in test [8], 39.7 µM (inactive); in [9] it was > 100 µM (inactive); in test [10], > 100 µM (inactive); in test [11] it was > 100 µM (inactive). Also, the GI50 was 57.7 µM (inactive) in [12]; > 100 µM (inactive) in test [13]; 60.5 µM (inactive) in [14]; > 100 µM (inactive) in test [15]; > 100 µM (inactive) in test [16]; > 100 µM (inactive) in [17].
As for `Cc1ccc(S(=O)(=O)N(CCN2C(=O)c3ccccc3C2=O)c2cc3c4c(c2)Oc2cc(N(CCN5C(=O)c6ccccc6C5=O)S(=O)(=O)c5ccc(C)cc5)cc5c2C4(C)c2c(cc(N(CCN4C(=O)c6ccccc6C4=O)S(=O)(=O)c4ccc(C)cc4)cc2O5)O3)cc1`, the GI50 was 35.7 µM (inactive) in test [1]; > 100 µM (inactive) in [19]; > 100 µM (inactive) in test [2]; > 100 µM (inactive) in test [3]; > 100 µM (inactive) in test [4]; > 100 µM (inactive) in test [18]. The GI50 is > 100 µM (inactive) in test [5]; > 100 µM (inactive) in test [6]; above 100 µM in [7]; > 100 µM (inactive) in [8]; > 100 µM (inactive) in [9]; > 100 µM (inactive) in test [10]. Moreover, the GI50 in test [11], in test [12], in [13], in test [14], in test [15] and in [16] was > 100 µM (inactive) in each case.
Consider `O=C(O)CCC(=O)c1ccc2c(c1)C(C(=O)O)CC2` (stereo not drawn), for which the GI50 is > 100 µM (inactive) in test [1]; > 100 µM (inactive) in test [2]; > 100 µM (inactive) in test [3]; > 100 µM (inactive) in [4]; 0.0902 µM (active) in [5]; > 100 µM (inactive) in [6]. Moreover, the GI50 in [7] was above 100 µM; in [8], > 100 µM (inactive); in [9], > 100 µM (inactive); in [10] it was > 100 µM (inactive); in [11], > 100 µM (inactive); in [12] it was > 100 µM (inactive). Also, the GI50 in test [13], in test [14], in test [15], in [16] and in test [17] was > 100 µM (inactive) throughout.
For the compound `COc1ccc(C)c2c1N[C@](C)([C@]1(C)Nc3c(OC)ccc(C)c3C1=O)C2=O`, the GI50 in test [1], in test [2], in test [3], in test [4], in test [18] and in test [5] was > 100 µM (inactive) throughout. The GI50 in test [6] is > 100 µM (inactive); in test [7], above 100 µM; in test [8], > 100 µM (inactive); in test [9], > 100 µM (inactive); in test [10], > 100 µM (inactive); in test [11] it was 44.7 µM (inactive). Besides, the GI50 in [12], in test [13], in test [14], in test [15], in test [16] and in test [17] was > 100 µM (inactive) in each case.
Consider `O=c1cc2oc3ccc4ccccc4c3cc-2c(=O)[nH]1`, for which the GI50 was 18.2 µM (inactive) in test [1]; 7.71 µM (inactive) in test [2]; 11.3 µM (inactive) in test [3]; 13.8 µM (inactive) in test [4]; 1.07 µM (active) in test [18]; 21 µM (inactive) in test [5]. Further, the GI50 in [6] was 10.2 µM (inactive); in test [7] it was 7.55 µM; in [8] it was 9.12 µM (inactive); in [9], 2.25 µM (inactive); in test [10], 1.87 µM (inactive); in test [11], 11 µM (inactive). Also, the GI50 in test [12] is 2.62 µM (inactive); in test [14], 19.8 µM (inactive); in [15], 17.9 µM (inactive); in test [16] it was 17 µM (inactive); in test [17], 16.2 µM (inactive).
For `CC(=O)OCC(=O)O[C@@H]1[C@H]2[C@@H](OC(=O)c3ccccc3)[C@@H](C)C[C@]2(O)[C@H](OC(C)=O)[C@@]2(C)C[C@]1(OC(C)=O)C[C@H]1C(=O)C(C)(C)[C@@H](OC(C)=O)[C@@H]12`, the GI50 in test [1] was > 12.1 µM (inactive); in [19] it was 7.71 µM (inactive); in [2], > 25 µM (inactive); in test [3], 6.98 µM (inactive); in test [4], > 20 µM (inactive); in [5], 3.66 µM (inactive). The GI50 is > 25 µM (inactive) in test [6]; above 25 µM in [7]; > 25 µM (inactive) in [8]; > 5.14 µM (inactive) in test [9]; 21.2 µM (inactive) in test [10]; 10.8 µM (inactive) in test [11]. Moreover, the GI50 in [12] was > 25 µM (inactive); in test [13], > 25 µM (inactive); in test [14] it was 1.48 µM (inactive); in test [15] it was > 25 µM (inactive); in test [16], > 25 µM (inactive); in [17] it was > 25 µM (inactive).
Take `O=c1c(-c2ccc3c(c2)OCO3)coc2c3c(ccc12)OCO3`: the GI50 in test [1] is 30 µM (inactive); in test [19], 23 µM (inactive); in test [2], 45.2 µM (inactive); in test [3], 93.5 µM (inactive); in [4], 19.4 µM (inactive); in [18], > 100 µM (inactive). Also, the GI50 in test [5] was 49.9 µM (inactive); in test [6], 37.6 µM (inactive); in [7], 28.4 µM; in [8] it was 18.3 µM (inactive); in test [9], > 100 µM (inactive); in [10] it was 39.7 µM (inactive). Also, the GI50 in test [11] is > 100 µM (inactive); in test [12] it was 40 µM (inactive); in test [13], 41.8 µM (inactive); in test [14], > 100 µM (inactive); in [15] it was 24.3 µM (inactive); in test [16], 18.5 µM (inactive).
